Test systems include EKVX NSCLC; UACC-257 melanoma; SF-539 CNS; SK-MEL-28 melanoma; SR leukemia; COLO 205 colon; IGROV1 ovarian; MDA-MB-231 breast; DU-145 prostate; UACC-62 melanoma; M14 melanoma; HS 578T breast.
Holding throughout (assay): NCI tumour cell line growth inhibition, 48 h

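In this assay, cells in 96-well plates receive the compound at five concentrations for 48 hours. Endpoints are linearly interpolated between the surrounding concentrations. TGI marks complete inhibition of growth.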 Some results are limits rather than exact numbers.

Consider `CN=C1CC2c3cc(OC)c(OC)cc3CCN2C2=C1C(=O)CC(C)(C)C2` (configuration not stated), for which the TGI in the assay on EKVX NSCLC, in the assay with UACC-257 melanoma, in the assay with SF-539 CNS, with SK-MEL-28 melanoma, in the assay on SR leukemia and in the assay with COLO 205 colon was greater than 100 µM each time.

In the case of `N#CCCN(C(=O)Nc1ccccc1)[C@H]1CCCC[C@@H]1N(C(=O)Nc1ccccc1)c1ccccc1`, the TGI in the assay with EKVX NSCLC, in the assay with UACC-257 melanoma, in the assay on IGROV1 ovarian, in the assay with MDA-MB-231 breast, in the assay on DU-145 prostate and with SF-539 CNS was greater than 100 µM throughout. For the same compound, the TGI in the assay on SK-MEL-28 melanoma, in the assay with UACC-62 melanoma, in the assay on M14 melanoma, in the assay with SR leukemia and in the assay with COLO 205 colon was greater than 100 µM throughout.

Turning to `Cc1ccc(-n2c(N)c(C#N)c3[nH]nc(N)c3c2=O)cc1`, the TGI with EKVX NSCLC, with UACC-257 melanoma, in the assay with IGROV1 ovarian, in the assay on MDA-MB-231 breast, in the assay with DU-145 prostate and in the assay with SF-539 CNS was greater than 100 µM throughout. The TGI in the assay with SK-MEL-28 melanoma, in the assay with UACC-62 melanoma, with M14 melanoma, with HS 578T breast and in the assay on COLO 205 colon was greater than 100 µM throughout.

As for `COc1ccc(C(OCC2OC(n3cc(C)c(=O)[nH]c3=O)CC2n2cc(Cn3cc(Cl)c(=O)[nH]c3=O)nn2)(c2ccccc2)c2ccccc2)cc1` (configuration not stated), the TGI in the assay with EKVX NSCLC, in the assay with UACC-257 melanoma, in the assay with IGROV1 ovarian, in the assay with MDA-MB-231 breast, with DU-145 prostate and in the assay on SF-539 CNS was greater than 100 µM throughout. In addition, the TGI in the assay on SK-MEL-28 melanoma, in the assay on UACC-62 melanoma, in the assay on M14 melanoma, with HS 578T breast and with COLO 205 colon was greater than 100 µM in each case.

As to `N#C/C1=C(\N)CCSSSC1`, the TGI in the assay with EKVX NSCLC was greater than 100 µM; in the assay with UACC-257 melanoma, greater than 100 µM; in the assay on IGROV1 ovarian, greater than 100 µM; in the assay on SF-539 CNS, greater than 100 µM; with SK-MEL-28 melanoma, greater than 100 µM; with M14 melanoma, 95.9 µM. Further, the TGI in the assay with SR leukemia and in the assay with COLO 205 colon was greater than 100 µM throughout.

For `NNC(=O)c1n[nH]nc1C(=O)NN`, the TGI in the assay on UACC-257 melanoma, in the assay on MDA-MB-231 breast, with DU-145 prostate, in the assay with M14 melanoma, with SR leukemia and in the assay with COLO 205 colon was greater than 100 µM each time.

Regarding `CC1CN(C(=O)CN2CCC(CCCCN(C)C)CC2)c2ccccc2NC1=O` (configuration not stated), the TGI with UACC-257 melanoma, with IGROV1 ovarian, with SK-MEL-28 melanoma, in the assay with UACC-62 melanoma, with M14 melanoma and in the assay with SR leukemia was greater than 100 µM in each case. In the assay with COLO 205 colon, this compound showed a TGI greater than 100 µM.

Turning to `CC12CC(c3ccccc3O1)C(C(=O)Nc1ccc(Cl)cc1Cl)C(=O)N2` (configuration not stated), the TGI with EKVX NSCLC was 50.2 µM; with UACC-257 melanoma, greater than 100 µM; in the assay on IGROV1 ovarian, 50.9 µM; with DU-145 prostate it was greater than 100 µM; in the assay on SF-539 CNS, greater than 100 µM; with SK-MEL-28 melanoma, greater than 100 µM. In addition, the TGI is greater than 100 µM in the assay with UACC-62 melanoma, 31.9 µM in the assay on M14 melanoma, 47.7 µM in the assay with HS 578T breast and greater than 100 µM in the assay on COLO 205 colon.

For `CCCNC(=S)NNC(=O)CSc1nc(-c2ccccc2)c(-c2ccccc2)[nH]1`, the TGI was 89.7 µM in the assay on EKVX NSCLC; greater than 100 µM in the assay with UACC-257 melanoma; greater than 100 µM in the assay on IGROV1 ovarian; greater than 100 µM with SF-539 CNS; greater than 100 µM in the assay with SK-MEL-28 melanoma; greater than 100 µM with UACC-62 melanoma. Besides, the TGI is 89.6 µM with M14 melanoma, 93.4 µM in the assay with SR leukemia and greater than 100 µM with COLO 205 colon.

`COc1ccc(-[n+]2nc(S(=O)(=O)O)c(/C=C/c3ccc(N(C)C)cc3)cc2C#N)cc1`: the TGI in the assay with EKVX NSCLC, in the assay on UACC-257 melanoma, in the assay on IGROV1 ovarian, with MDA-MB-231 breast, in the assay with DU-145 prostate and in the assay with SF-539 CNS was greater than 100 µM throughout. Besides, the TGI in the assay on SK-MEL-28 melanoma, with UACC-62 melanoma, in the assay with M14 melanoma, in the assay on HS 578T breast and in the assay with COLO 205 colon was greater than 100 µM each time.

As for `Cc1ccccc1N1C(=O)C2C=CC(n3[nH]c(=O)n(Cc4ccccc4)c3=O)CC2C1=O` (configuration not stated), the TGI with EKVX NSCLC, in the assay on UACC-257 melanoma, with IGROV1 ovarian, in the assay with SF-539 CNS, in the assay on SK-MEL-28 melanoma and in the assay with UACC-62 melanoma was greater than 100 µM in each case. The TGI in the assay on M14 melanoma and in the assay on COLO 205 colon was greater than 100 µM throughout.

On to `O=c1[nH]nc(Cc2ccccc2)n1/N=C/c1ccccc1O`, for which the TGI in the assay with EKVX NSCLC, in the assay on UACC-257 melanoma, with IGROV1 ovarian, with MDA-MB-231 breast, with DU-145 prostate and with SF-539 CNS was greater than 100 µM each time. Moreover, the TGI in the assay with SK-MEL-28 melanoma, in the assay on UACC-62 melanoma, in the assay on M14 melanoma, with HS 578T breast and in the assay with COLO 205 colon was greater than 100 µM in each case.

For `Cn1c(=O)n(C2(C)C[Se]C2)c2ccccc21`, the TGI in the assay with EKVX NSCLC, in the assay on UACC-257 melanoma, with IGROV1 ovarian, in the assay with SF-539 CNS, with SK-MEL-28 melanoma and in the assay with UACC-62 melanoma was greater than 100 µM in each case. Also, the TGI in the assay on M14 melanoma, in the assay with SR leukemia and in the assay with COLO 205 colon was greater than 100 µM throughout.

In the case of `N#Cc1c2ccccc2cn1-c1ccc(F)cc1`, the TGI in the assay with UACC-257 melanoma was 83.8 µM; with IGROV1 ovarian, greater than 100 µM; in the assay on SF-539 CNS, greater than 100 µM; in the assay with SK-MEL-28 melanoma, greater than 100 µM; with UACC-62 melanoma, greater than 100 µM; with M14 melanoma it was greater than 100 µM. Also, in the assay with COLO 205 colon, the TGI amounted to 61.7 µM.

As to `N#Cc1c(N)n(-c2cccc(C(=O)O)c2)c(=O)c2cc([N+](=O)[O-])ccc12`, the TGI in the assay on UACC-257 melanoma, with MDA-MB-231 breast, in the assay on DU-145 prostate, in the assay on SK-MEL-28 melanoma, in the assay with UACC-62 melanoma and with HS 578T breast was greater than 100 µM throughout. In the assay with COLO 205 colon, this compound displayed a TGI greater than 100 µM.

The record behind these values is PubChem BioAssay (NCI).
